Measurements published in patent publication US20140249135A1, “PIM KINASE INHIBITORS AND METHODS OF THEIR USE” (NOVARTIS AG, priority 2007, published 2014).
Read-outs that look alike come from different tables or passages of the source.

Key:
Assay type in all cases: biochemical
Pim2 kinase = Pim2 kinase (Homo sapiens, UniProt Q9P1W9); experiment: Pim2 ATP depletion assay;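 further: Luciferase-based luminescent readout of ATP remaining after PIM2 phosphorylates a BAD peptide, final 5 nM enzyme, 4 µM ATP, 10 µM peptide, 2.5% DMSO, run to roughly half ATP consumption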
Pim1 kinase = Pim1 kinase (Homo sapiens, UniProt P11309); experiment: Pim1 ATP depletion assay; settings: Pim1 ATP depletion assay;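 further: Luciferase-luciferin luminescence readout of residual ATP after PIM1 transfers phosphate to a peptide substrate, 40 µM ATP added, reaction run to roughly half ATP consumption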
Pim3 kinase = Pim3 kinase (Homo sapiens, UniProt Q86V86); experiment: Pim3 ATP depletion assay

Pim2 kinase, sequence (Q9P1W9 whole entry): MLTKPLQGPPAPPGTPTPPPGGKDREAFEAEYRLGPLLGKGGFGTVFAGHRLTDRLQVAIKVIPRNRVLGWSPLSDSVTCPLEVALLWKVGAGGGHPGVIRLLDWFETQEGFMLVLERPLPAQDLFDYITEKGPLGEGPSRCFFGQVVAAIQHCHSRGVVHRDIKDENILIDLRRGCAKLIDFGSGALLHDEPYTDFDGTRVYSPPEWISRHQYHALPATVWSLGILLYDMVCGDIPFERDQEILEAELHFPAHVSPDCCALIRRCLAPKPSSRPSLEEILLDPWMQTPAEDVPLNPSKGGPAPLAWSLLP
Pim1 kinase, sequence (P11309 whole entry): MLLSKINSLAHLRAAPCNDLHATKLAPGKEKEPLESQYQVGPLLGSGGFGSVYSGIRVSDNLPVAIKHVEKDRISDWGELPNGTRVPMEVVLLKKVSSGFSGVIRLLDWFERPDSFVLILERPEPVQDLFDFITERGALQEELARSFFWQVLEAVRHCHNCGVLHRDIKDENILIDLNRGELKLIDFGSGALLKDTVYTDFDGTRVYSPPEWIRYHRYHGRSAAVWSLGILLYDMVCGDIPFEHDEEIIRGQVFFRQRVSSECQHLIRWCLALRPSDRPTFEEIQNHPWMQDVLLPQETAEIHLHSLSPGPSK

SMILES | IC50 (Pim2 kinase; read-out: IC50 (μM) PIM2) [µM] | IC50 (Pim1 kinase; read-out: IC50 (μM) PIM1) [µM] | IC50 (Pim3 kinase; read-out: IC50 (μM) PIM3) [µM] | IC50 (Pim2 kinase; read-out: PIM2 IC50) [µM] | IC50 (Pim1 kinase; read-out: PIM1 IC50) [µM] | IC50 (Pim3 kinase; read-out: PIM3 IC50) [µM]
CC(C)NC(=O)c1ccc(F)c(-c2ccc(N)c(C(=O)Nc3cnccc3N3CC[C@@H](F)[C@H](N)C3)n2)c1 [Example 253, 3-Amino-6-(2-fluoro-5-isopropylcarbamoyl-phenyl)-pyridine-2-carboxylic acid (3-amino-4-fluoro-3,4,5,6-tetra-hydro-2H-[1,4′]bipyridinyl-3′-yl)-amide] | < 1 | < 1 | < 1 | – | – | –
Nc1ccc(C23CC4CC(CC(C4)C2)C3)nc1C(=O)Nc1cnccc1N1CCC[C@H](N)C1 [Example 645, 6-Adamantan-1-yl-3-amino-pyridine-2-carboxylic acid (3-amino-3,4,5,6-tetrahydro-2H-[1,4′]bipyridinyl-3′-yl)-amide] | – | – | – | < 1 | < 1 | < 1
CCc1cccc(-c2ccc(N)c(C(=O)Nc3cnccc3-c3cc(N)nc(C)n3)n2)c1 [Example 555, 3-Amino-6-(3-ethyl-phenyl)-pyridine-2-carboxylic acid [4-(6-amino-2-methyl-pyrimidin-4-yl)-pyridin-3-yl]-amide] | – | – | – | < 1 | < 1 | < 1
Cc1cc(Cl)cnc1-c1ccc(N)c(C(=O)Nc2cnccc2N2CCC[C@H](N)C2)n1 [Example 701, 5-Amino-5′-chloro-3′-methyl-[2,2′]bipyridinyl-6-carboxylic acid (3-amino-3,4,5,6-tetra-hydro-2H-[1,4′]bipyridinyl-3′-yl)-amide] | – | – | – | < 1 | < 1 | < 1
Cc1nc(N)cc(-c2ccncc2NC(=O)c2nc(-c3ccccc3)ccc2N)n1 [Example 559, 3-Amino-6-phenyl-pyridine-2-carboxylic acid [4-(6-amino-2-methyl-pyrimidin-4-yl)-pyridin-3-yl]-amide] | – | – | – | < 1 | < 1 | < 1
Cc1ccccc1-c1ccc(N)c(C(=O)Nc2cnccc2N2CCC[C@H](N)C2)n1 [Example 338, 3-amino-6-o-tolyl-pyridine-2-carboxylic acid ((S)-3-amino-3,4,5,6-tetrahydro-2H-[1,4′]bi-pyridinyl-3′-yl)-amide] | < 1 | < 1 | < 1 | – | – | –
Nc1ccc(-c2ccccc2F)nc1C(=O)Nc1cnccc1-c1ccncc1Cl [Example 615, 3-amino-N-(3′-chloro-4,4′-bipyridin-3-yl)-6-(2-fluorophenyl)pyridine-2-carboxamide] | – | – | – | < 1 | < 1 | < 1
Nc1ccc(-c2ncccc2F)nc1C(=O)Nc1cnccc1N1CCC[C@H](O)C1 [Example 690, 5-Amino-3′-fluoro-[2,2′]bi-pyridinyl-6-carboxylic acid (3-hydroxy-3,4,5,6-tetrahydro-2H-[1,4′]bipyridinyl-3′-yl)-amide] | – | – | – | < 1 | < 1 | < 1
Nc1ccc(-c2ccccn2)nc1C(=O)Nc1cnccc1N1CCC[C@H](N)C1 [Example 730, 5-Amino-[2,2′]bipyridinyl-6-carboxylic acid (3-amino-3,4,5,6-tetrahydro-2H-[1,4′]bi-pyridinyl-3′-yl)-amide] | – | – | – | < 1 | < 1 | < 1
CSc1ccc(-c2ccc(N)c(C(=O)Nc3cnccc3N3CCC[C@H](N)C3)n2)nc1 [Example 699, 5-Amino-5′-methylsulfanyl-[2,2′]bipyridinyl-6-carboxylic acid (3-amino-3,4,5,6-tetra-hydro-2H-[1,4′]bipyridinyl-3′-yl)-amide] | – | – | – | < 1 | < 1 | < 1
CC(C)Oc1ccc(F)c(-c2nc(C(=O)Nc3cnccc3N3CC[C@@H](O)[C@H](N)C3)c(N)cc2F)c1F [Example 664, 3-Amino-6-(2,6-difluoro-3-isopropoxy-phenyl)-5-fluoro-pyridine-2-carboxylic acid (3-amino-4-hydroxy-3,4,5,6-tetra-hydro-2H-[1,4′]bipyridinyl-3′-yl)-amide] | – | – | – | < 1 | < 1 | < 1
COc1cc(-c2ccncc2NC(=O)c2nc(-c3cc(C(=O)NC(C)C)ccc3F)ccc2N)nc(N)n1 [Example 267, 3-Amino-6-(2-fluoro-5-isopropylcarbamoyl-phenyl)-pyridine-2-carboxylic acid [4-(2-amino-6-methoxy-pyrimidin-4-yl)-pyridin-3-yl]-amide] | < 1 | < 1 | < 1 | – | – | –
Cc1nc(N)cc(-c2ccncc2NC(=O)c2nc(-c3nccs3)ccc2N)n1 [Example 643, 3-amino-N-[4-(6-amino-2-methylpyrimidin-4-yl)pyridin-3-yl]-6-(1,3-thiazol-2-yl)pyridine-2-carboxamide] | – | – | – | < 1 | < 1 | < 1
Nc1cc(-c2ccncc2NC(=O)c2cccc(-c3ccccc3F)n2)nc(C(F)(F)F)n1 [Example 529, 6-(2-Fluoro-phenyl)-pyridine-2-carboxylic acid [4-(6-amino-2-trifluoromethyl-pyrimidin-4-yl)-pyridin-3-yl]-amide] | < 1 | < 1 | < 1 | – | – | –
NC1CCCN(c2ccncc2NC(=O)c2cnccn2)C1 (stereo not drawn) [Example 197, N-[4-(3-aminopiperidin-1-yl)-pyridin-3-yl]pyrazine-2-carboxamide] | > 25 | > 25 | > 25 | – | – | –
CCCCOc1ccc(F)c(-c2nc(C(=O)Nc3cnccc3N3CCC[C@H](N)C3)c(N)cc2F)c1F [Example 506, 3-Amino-6-(3-butoxy-2,6-difluoro-phenyl)-5-fluoro-pyridine-2-carboxylic acid (3-amino-3,4,5,6-tetrahydro-2H-[1,4′]bipyridinyl-3′-yl)-amide] | < 1 | < 1 | < 1 | – | – | –
Cc1cc(-c2ccncc2NC(=O)c2nc(-c3nccs3)ccc2N)cc(N)n1 [Example 641, 3-amino-N-(2′-amino-6′-methyl-4,4′-bipyridin-3-yl)-6-(1,3-thiazol-2-yl)pyridine-2-carboxamide] | – | – | – | < 1 | < 1 | < 1
COc1cnccc1-c1ccncc1NC(=O)c1nc(-c2ccccc2F)ccc1N [Example 610, 3-amino-6-(2-fluorophenyl)-N-(3′-methoxy-4,4′-bipyridin-3-yl)pyridine-2-carboxamide] | – | – | – | < 1 | < 1 | < 1
CN1CCN(c2cc(-c3ccc(N)c(C(=O)Nc4cnccc4-c4cc(N)nc(C(F)(F)F)n4)n3)ccn2)CC1 [Example 573, 5-Amino-2′-(4-methyl-piperazin-1-yl)-[2,4′]bipyridinyl-6-carboxylic acid [4-(6-amino-2-trifluoromethyl-pyrimidin-4-yl)-pyridin-3-yl]-amide] | – | – | – | < 1 | < 1 | < 1
Cc1cnc(C(=O)Nc2cnccc2N2CCCC(N)C2)cn1 (stereo not drawn) [Example 198, N-[4-(3-aminopiperidin-1-yl)pyridin-3-yl]-5-methyl-pyrazine-2-carboxamide] | > 25 | > 25 | > 25 | – | – | –
Nc1ccc(-c2ncccc2N)nc1C(=O)Nc1cnccc1N1CCC[C@H](N)C1 [Example 716, 5,3′-Diamino-[2,2′]bipyridinyl-6-carboxylic acid (3-amino-3,4,5,6-tetrahydro-2H-[1,4′]bi-pyridinyl-3′-yl)-amide] | – | – | – | < 1 | < 1 | < 1
Cc1ccccc1-c1ccncc1NC(=O)c1nc(-c2c(F)cccc2F)ccc1N [Example 585, 3-amino-6-(2,6-difluoro-phenyl)-pyridine-2-carboxylic acid (4-o-tolyl-pyridin-3-yl)-amide] | – | – | – | < 1 | < 1 | < 1
COc1ccc(F)c(-c2ccc(N)c(C(=O)Nc3cnccc3N3CCC[C@H](N)C3)n2)c1 [Example 470, 3-Amino-6-(2-fluoro-5-methoxy-phenyl)-pyridine-2-carboxylic acid (3-amino-3,4,5,6-tetrahydro-2H-[1,4′]bipyridinyl-3′-yl)-amide] | < 1 | < 1 | < 1 | – | – | –
Nc1cc(-c2ccncc2NC(=O)c2nc(-c3c(F)cccc3F)ccc2N)nc(C(F)(F)F)n1 [Example 266, 3-Amino-6-(2,6-difluoro-phenyl)-pyridine-2-carboxylic acid [4-(6-amino-2-trifluoromethyl-pyrimidin-4-yl)-pyridin-3-yl]-amide] | < 1 | < 1 | < 1 | – | – | –
Nc1cc(F)c(-c2c(F)ccc(O)c2F)nc1C(=O)Nc1cnccc1N1CCC[C@H](N)C1 [Example 751, 3-Amino-N-(4-((S)-3-aminopiperidin-1-yl)pyridin-3-yl)-6-(2,6-difluoro-3-hydroxyphenyl)-5-fluoropicolinamide] | – | – | – | < 1 | < 1 | < 1
Nc1ccc(-c2cc(C(F)(F)F)ccn2)nc1C(=O)Nc1cnccc1N1CCC[C@H](N)C1 [Example 715, 5-Amino-4′-trifluoromethyl-[2,2′]bipyridinyl-6-carboxylic acid (3-amino-3,4,5,6-tetra-hydro-2H-[1,4′]bipyridinyl-3′-yl)-amide] | – | – | – | < 1 | < 1 | < 1
Cc1ccccc1-c1ccncc1NC(=O)c1nc(-c2ccccc2F)ccc1N [Example 586, 3-amino-6-(2-fluoro-phenyl)-pyridine-2-carboxylic acid (4-o-tolyl-pyridin-3-yl)-amide] | – | – | – | 1 to 10 | < 1 | < 1
N[C@H]1CCCN(c2ccncc2NC(=O)c2ccc(F)c(-c3ccccc3F)n2)C1 [Example 444, 5-Fluoro-6-(2-fluoro-phenyl)-pyridine-2-carboxylic acid (3-amino-3,4,5,6-tetrahydro-2H-[1,4′]bipyridinyl-3′-yl)-amide] | < 1 | < 1 | < 1 | – | – | –
